Patent publication US20090123561A1, “Fungicide mixtures based on 1-methyl-pyrazol-4-ylcarboxanilides” (BASF AKTIENGESELLLSCHAFT, priority 2005, published 2009)

Assays:
Assay type in all cases: in vivo
[1] = tested on: Botrytis cinerea; test: Activity against gray mold on bell pepper leaves caused by Botrytis cinerea, 1 day protective application; settings: efficacy in % of untreated control, read after 5 days
Method: (§1) The active compounds, separately or jointly, were prepared as a stock solution comprising 25 mg of active compound which was made up to 10 ml using a mixture of acetone and/or dimethyl sulfoxide and the emulsifier Uniperol® EL (wetting agent having an emulsifying and dispersing action based on ethoxylated alkylphenols) in a ratio by volume of solvent/emulsifier of 99:1. The mixture was then made up to 100 ml with water. This stock solution was diluted with the solvent/emulsifier/water mixture described to give the concentration of active compound stated below.
(§2) Alternatively, the active compounds epoxiconazole and pyraclostrobin were used as a commercial formulation and diluted with water to the stated active compound concentrations.
(§3) The visually determined percentages of infected leaf areas were converted into efficacies in % of the untreated control:
(§4) The efficacy (E) is calculated as follows using Abbot's formula: […]
(§5) α corresponds to the fungicidal infection of the treated plants in % and β corresponds to the fungicidal infection of the untreated (control) plants in %
(§6) An efficacy of 0 means that the infection level of the treated plants corresponds to that of the untreated control plants; an efficacy of 100 means that the treated plants are not infected.
(§7) The expected efficacies of active compound combinations were determined using Colby's formula (Colby, S. R. “Calculating synergistic and antagonistic responses of herbicide combinations”, Weeds, 15, pp. 20-22, 1967) and compared with the observed efficacies.
(§8) E=x+y−x·y/100 Colby's formula • E expected efficacy, expressed in % of the untreated control, when using the mixture of the active compounds A and B at the concentrations a and b • x efficacy, expressed in % of the untreated control, when using the active compound A at the concentration a • y efficacy, expressed in % of the untreated control, when using the active compound B at the concentration b
Activity Against Gray Mold on Bell Pepper Leaves Caused by Botrytis cinerea, 1 Day Protective Application
Bell pepper seedlings of the cultivar “Neusiedler Ideal Elite” were, after 2-3 leaves were well developed, sprayed to runoff point with an aqueous suspension in the active compound concentrations stated below. The next day, the treated plants were inoculated with a spore suspension of Botrytis cinerea which comprised 1.7×10^6 spores/ml in a 2% strength aqueous biomalt solution. The test plants were then placed in a dark climatized chamber at 22 to 24° C. and high atmospheric humidity. After 5 days, the extent of the fungal infection on the leaves could be determined visually in %.

[2] = tested on: Pyrenophora [syn. Drechslera] teres; test: Activity against net blotch of barley caused by Pyrenophora teres, 1 day protective application; settings: barley seedlings, efficacy in % of untreated control, read after 6 days
Method: as §1, §2, §3, §4, §5, §6, §7, §8
Activity Against Net Blotch of Barley Caused by Pyrenophora teres, 1 Day Protective Application
Leaves of potted barley seedlings were sprayed to runoff point with an aqueous suspension having the active compound concentration stated below. 24 hours after the spray coating had dried on, the test plants were inoculated with an aqueous spore suspension of Pyrenophora [syn. Drechslera] teres, the net blotch pathogen. The test plants were then placed in a greenhouse at temperatures between 20 and 24° C. and at 95 to 100% relative atmospheric humidity. After 6 days, the extent of the development of the disease was determined visually in % infection of the entire leaf area.

[3] = tested on: Alternaria solani; test: Activity against early blight of tomato caused by Alternaria solani (protective spray on potted tomato plants); settings: read after 5 days
Method: as §1, §2, §3, §4, §5, §6, §7, §8
Activity Against Early Blight of Tomato Caused by Alternaria solani
Leaves of potted tomato plants were sprayed to runoff point with an aqueous suspension having the active compound concentration stated below. The next day, the leaves were infected with an aqueous spore suspension of Alternaria solani in a 2% strength biomalt solution having a density of 0.17×10^6 spores/ml. The plants were then placed in a water vapor-saturated chamber at temperatures between 20 and 22° C. After 5 days, the disease on the untreated but infected control plants had developed to such an extent that the infection could be determined visually in %.

[4] = single active compound 63 mg/l, efficacy in % of untreated control (Abbot)

**Q.** With Cc1cc(C)nc(Nc2ccccc2)n1 [pyrimethanil, 4,6-dimethylpyrimidin-2-ylphenylamine] as the molecule, how does the “Efficacy (% of untreated control)” value ([1]; single active compound 4 mg/l) read?
**A.** 0%

**Q.** What about the “Efficacy (% of untreated control)” value ([1]; single active compound 63 mg/l) of the same molecule?
**A.** 0%

**Q.** For COc1ccc(C(=CC(=O)N2CCOCC2)c2ccc(Cl)cc2)cc1OC [dimethomorph, 3-(4-chlorophenyl)-3-(3,4-dimethoxyphenyl)-1-morpholin-4-yl-propenone], which “Efficacy (% of untreated control)” value ([2]; single active compound 4 mg/l) is on record?
**A.** 0%

**Q.** For COC(=O)N(OC)c1ccccc1COc1ccn(-c2ccc(Cl)cc2)n1 [pyraclostrobin, methyl N-{2-[1-(4-chlorophenyl)-1H-pyrazol-3-yloxymethyl]phenyl}(N-methoxy)carbamate], which “Efficacy (% of untreated control)” value ([1]; single active compound 16 mg/l) is on record?
**A.** 11%

**Q.** Which results are given for Cn1cc(C(=O)Nc2ccccc2-c2ccccc2C(F)(F)F)c(C(F)F)n1 [No. 40, N-(2′-trifluoromethylbiphen-2-yl)-1-methyl-3-difluoromethyl-1H-pyrazole-4-carboxamide]?
**A.** Efficacy (% of untreated control) ([2]; single active compound 4 mg/l): 18%; Efficacy (% of untreated control) ([1]; single active compound 16 mg/l): 11%; Efficacy (% of untreated control) ([1]; single active compound 63 mg/l): 44%; Efficacy (% of untreated control, Abbott) [3, 4]: 25%

**Q.** For CO/N=C(/C(=O)OC)c1ccccc1COc1ccccc1C [kresoximmethyl, methyl (E)-methoxyimino[α-(o-tolyloxy)-o-tolyl]acetate], which “Efficacy (% of untreated control)” value ([1]; single active compound 16 mg/l) is on record?
**A.** 0%

**Q.** And the “Efficacy (% of untreated control)” value ([1]; single active compound 63 mg/l)?
**A.** 0%

**Q.** What does the source list for Cn1cc(C(=O)Nc2ccccc2-c2ccccc2C(F)(F)F)c(C(F)(F)F)n1 [No. 57, N-(2′-trifluoromethylbiphen-2-yl)-1-methyl-3-trifluoromethyl-1H-pyrazole-4-carboxamide]?
**A.** Efficacy (% of untreated control) ([2]; single active compound 16 mg/l): 41%; Efficacy (% of untreated control) ([1]; single active compound 4 mg/l): 0%; Efficacy (% of untreated control) ([1]; single active compound 16 mg/l): 0%; Efficacy (% of untreated control) ([1]; single active compound 63 mg/l): 22%

**Q.** How did the “Efficacy (% of untreated control, Abbott)” value [3, 4] turn out when N#Cc1c(Cl)c(Cl)c(Cl)c(C#N)c1Cl [chlorothalonil, 2,4,5,6-tetrachloroisophthalonitrile] was run?
**A.** 0%

**Q.** How did the “Efficacy (% of untreated control, Abbott)” value ([3]; single active compound 4 mg/l, efficacy in % of untreated control) turn out when O=c1c2cc(F)ccc2nc(-n2cncn2)n1-c1ccc(Cl)cc1Cl [fluquinconazole, 3-(2,4-dichlorophenyl)-6-fluoro-2-[1,2,4]-triazol-1-yl-3H-quinazolin-4-one] was run?
**A.** 0%

**Q.** Fc1ccc([C@]2(Cn3cncn3)O[C@H]2c2ccccc2Cl)cc1 (racemic) [epoxiconazole, (2RS,3SR)-1-[3-(2-chlorophenyl)-2,3-epoxy-2-(4-fluorophenyl)propyl]-1H-1,2,4-triazole] was tested. Which “Efficacy (% of untreated control)” value ([2]; single active compound 1 mg/l) did it give?
**A.** 0%

**Q.** How did the “Efficacy (% of untreated control, Abbott)” value [3, 4] turn out when “zinc ammoniate ethylenebis(dithiocarbamate) [metiram]” was run?
**A.** 0%

**Q.** COc1cc(C)c(C(=O)c2c(OC)ccc(Br)c2C)c(OC)c1OC [metrafenone, 3′-bromo-2,3,4,6′-tetramethoxy-2′,6-dimethylbenzophenone] was tested. Which “Efficacy (% of untreated control)” value ([1]; single active compound 16 mg/l) did it give?
**A.** 0%

**Q.** CC(C)(C)C(O)(CCc1ccc(Cl)cc1)Cn1cncn1 (centres unmarked) [tebuconazole, 1-(4-chlorophenyl)-4,4-dimethyl-3-[1,2,4]triazol-1-ylmethylpentan-3-ol] was tested. Which “Efficacy (% of untreated control)” value ([2]; single active compound 4 mg/l) did it give?
**A.** 0%
